We go through one molecule from patent US20250065017A1, “Fractionating Extracellular Matrix to Modulate Bioactivity and the Host Response” (University of Pittsburgh - Of the Commonwealth System of …, priority 2014, published 2025).

For one test, the system named is Sprague Dawley rats. As to the kind of experiment: Rat skeletal muscle injury model: collagen deposition and myogenesis. The following applies: UBM implant. It counts as in vivo. The procedure:
An established rodent skeletal muscle injury model was used to evaluate the effect of the COX1/2 inhibitor, Aspirin, on the ECM scaffold mediated constructive remodeling response. Briefly, three days prior to the surgical procedure, animals were randomly assigned to either the Aspirin treated (3 mg/mL Aspirin in drinking water) or control (vehicle) group. Bilateral 1.5 cm×1.5 cm partial thickness defects were created in the abdominal musculature. A size-matched pre-cast UBM hydrogel and an overlying 2×2 cm single layer sheet of UBM was then placed in the muscle defect area. The remodeling response was evaluated following 3, 7, 14, and 35 days by quantitative histomorphologic metrics (Wolf M T, Carruthers […], Crapo P M, Huber A, Burnsed O A, Londono R, Johnson […] and others. Polypropylene surgical mesh coated with extracellular matrix mitigates the host foreign body response. J Biomed Mater Res A 2013 and Wolf […], Brennan-Pierce E P, Johnson S A, Carruthers […] hydrogel derived from decellularized dermal extracellular matrix. Biomaterials 2012;33(29):7028-38), including characterization of macrophage phenotype and neo tissue deposition. Thirty-two female Sprague Dawley rats (350-400 g at implantation) were purchased from Harlan Laboratories. […] Salicylates in whole blood were determined using the Salicylates Detection Kit from Neogen according to the manufacturer's instructions. […] Fast and Slow Myosin Heavy Chain: Myosin heavy chain positive cells in the defect area were determined by immunolabeling for fast and slow myosin heavy chain as previously described (Turner N J, Yates A J, Jr., Weber […], Stolz D B, Gilbert […]. Xenogeneic extracellular matrix as an inductive scaffold for regeneration of a functioning musculotendinous junction. Tissue Eng Part A 2010;16(11):3309-17; Valentin J E, Turner N J, Gilbert […]. Functional skeletal muscle formation with a biologic scaffold. Biomaterials 2010;31(29):7475-84; and Wolf […]. Biologic scaffold composed of skeletal muscle extracellular matrix. […]

The test system of test [1] is THP1 macrophage-like cells. The experiment in a line: COX2 expression by western blot. Format: cell-based, human. The following applies: Aspirin 200 μM with UBM hydrogel 0.5 mg/mL; 4, 8, 24 hours.
Procedure: Cells were then treated with UBM hydrogel for 4, 8, or 24 hours. At the specified time points, cells were washed extensively with 1× PBS and lysis buffer (50 mM Tris, 20 mM NaCl, 1% Triton X-100) was added. Cells were mechanically removed from the culture dish, transferred to centrifuge tubes and incubated on ice for 10 minutes. Lysates were spun down at 14000 rpm for 20 minutes at 4° C. to remove any debris. The clarified lysate was stored at −80° C. Lysates were diluted 1:1 in 2× Laemmli Sample Buffer (Bio-Rad, Hercules, CA) and boiled at 95° C. for 5 minutes. Samples were then resolved on 9% SDS-PAGE gels (National Diagnostics) and transferred to polyvinyldifluoride (PVDF, Millipore) membranes. Membranes were blocked with 1:1 Odyssey Blocking Buffer:1×PBS (Licor) overnight at 4° C. […]
Another test deals with THP1 cells. As to the kind of experiment: CD206 and CD86 expression by western blot. Format: cell-based, human. The following applies: Aspirin 200 μM with UBM hydrogel. The procedure:
THP-1 human monocytes were obtained from the American Tissue Culture Collection (ATCC, Manassas, VA) and maintained in RPMI, 10% FBS, 1% penicillin/streptomycin, 2 mM L-glutamine, and 1 mM sodium pyruvate in a humidified atmosphere at 37° C. with 5% CO2. For experiments, 500,000 THP-1 cells/mL were plated with 320 nM phorbol 12-myristate 13-acetate (PMA) for 24 hours to induce differentiation into macrophages. Adherent macrophages were washed in PBS and placed in fresh media, followed by a 24 hour incubation to acquiesce.
THP1 macrophage-like cells prepared as described in the cell culture section had 200 μM Aspirin added (where appropriate) 1 hour prior to UBM hydrogel (0.5 mg/mL) treatment. Cells were then treated with UBM hydrogel for 4, 8, or 24 hours. At the specified time points, cells were washed extensively with 1× PBS and lysis buffer (50 mM Tris, 20 mM NaCl, 1% Triton X-100) was added. Cells were mechanically removed from the culture dish, transferred to centrifuge tubes and incubated on ice for 10 minutes. Lysates were spun down at 14000 rpm for 20 minutes at 4° C. to remove any debris. The clarified lysate was stored at −80° C. Lysates were diluted 1:1 in 2× Laemmli Sample Buffer (Bio-Rad, Hercules, CA) and boiled at 95° C. for 5 minutes. Samples were then resolved on 9% SDS-PAGE gels (National Diagnostics) and transferred to polyvinyldifluoride (PVDF, Millipore) membranes. Membranes were blocked with 1:1 Odyssey Blocking Buffer:1×PBS (Licor) overnight at 4° C. Blocked membranes were immunoblotted with either rabbit anti-human COX2 (1:5,000, Abcam), goat anti-human CD206 (1:3,000, Santa-Cruz), rabbit anti-human CD86 (1:5,000, Abcam), or mouse anti-human β-Actin (1:5,000, Abcam) in blocking buffer for 1 hour at room temperature with agitation. Membranes were extensively washed with TBST before the appropriate secondary antibodies (1:10,000, donkey anti-goat IR Dye 680, donkey-anti rabbit IR Dye 680, and donkey anti-mouse IR Dye 800, Licor) in imaging buffer (1:1 Odyssey Blocking Buffer, 0.02% SDS in TBST) were added for 30 minutes with agitation. […]
On the technique in general: A western blot detects proteins with antibodies after separation by electrophoresis.

As to `CC(=O)Oc1ccccc1C(=O)O` [Aspirin], the “reduction in collagen deposition” value in the test on Sprague Dawley rats (35 day time point, 3 mg/mL Aspirin in drinking water) is 24%. Further, the “reduction in myogenesis (myogenic index) compared to non-treated controls” value with Sprague Dawley rats (35 days post implantation) amounted to 4 fold. Further, the “in vivo reduction in myogenesis” value with Sprague Dawley rats amounted to 79%. Besides, the “change in COX2 expression” value in test [1] is recorded as “did not cause any changes in COX2 expression”. Also, in the test on THP1 cells (at 24 hours), the “maximum increase in CD86 expression” value was 0.15 fold and the “reduction in CD206 expression” value was determined as 91%. Moreover, the CD206 expression result with THP1 cells (early time points) was “did not alter CD206 expression”.
